Data published in patent US20230212122A1, “MITOCHONDRIAL TARGETING COMPOUNDS FOR THE TREATMENT OF ASSOCIATED DISEASES” (The Regents of the University of Michigan, priority 2020, published 2023).

Assays:
[1] = test system: UM16 cell line; test: Proteomics, protein fold change; format: cell-based; details: for Fold change: 5 μM
From the text: (§1) Several proteins participating in energy metabolism were dramatically changed.

[2] = test system: UM16 cell line; test: GSEA of proteomics data ([…], KEGG pathways); format: cell-based; details: for ES / NES: 5 μM, 24 hours
From the text: as §1

[3] = HALLMARK_ADIPOGENESIS, FDR q-val 0.644
[4] = HALLMARK_ALLOGRAFT_REJECTION, FDR q-val 0.521
[5] = HALLMARK_ANDROGEN_RESPONSE, FDR q-val 0.915
[6] = HALLMARK_APOPTOSIS, FDR q-val 0.666
[7] = HALLMARK_BILE_ACID_METABOLISM, FDR q-val 0.245
[8] = HALLMARK_CHOLESTEROL_HOMEOSTASIS, FDR q-val 0.314
[9] = HALLMARK_COAGULATION, FDR q-val 0.004
[10] = HALLMARK_COMPLEMENT, FDR q-val 0.425
[11] = HALLMARK_DNA_REPAIR, FDR q-val 0.454
[12] = HALLMARK_E2F_TARGETS, FDR q-val 0.077
[13] = HALLMARK_EPITHELIAL_MESENCHYMAL_TRANSITION, FDR q-val 0.456
[14] = HALLMARK_G2M_CHECKPOINT, FDR q-val 0.107
[15] = HALLMARK_GLYCOLYSIS, FDR q-val 0.489
[16] = HALLMARK_HEME_METABOLISM, FDR q-val 0.552

## CCOC(=O)[C@@H]1CCCN(S(=O)(=O)c2ccc(S(=O)(=O)N(CC)CC)cc2)C1 [DX2-201, ethyl (R)-1-((4-(N,N-diethylsulfamoyl)phenyl)sulfonyl)piperidine-3-carboxylate]
[1]
  Serine protease 23, nuclear receptor family 2 group F member 6, protein NDRG1 (proteomic results): upregulated
[1]; 24 hours, top upregulated
  Glycerol kinase fold change: 3 fold
[1]; downregulated, TCA cycle enzyme
  dihydrolilpoyl dehudrogenase fold change: 0.684
[1]; protein ABTB2, 24 hours
  Fold change: 0.778
[1]; protein ALAS1, 24 hours
  Fold change: 1.393
[1]; protein ANKH, 24 hours
  Fold change: 0.777
[1]; protein ANKRD54, 24 hours
  Fold change: 0.799
[1]; protein AP1S2, 24 hours
  Fold change: 0.792
[1]; protein AP2S1, 24 hours
  Fold change: 0.781
[1]; protein APBB1IP, 24 hours
  Fold change: 1.458
[1]; protein BTBD10, 24 hours
  Fold change: 1.651
[1]; protein CCDC88C, 24 hours
  Fold change: 0.785
[1]; protein CCNT2, 24 hours
  Fold change: 1.65
[1]; protein CDC42BPA, 24 hours
  Fold change: 1.514
[1]; protein CDCA5, 24 hours
  Fold change: 0.761
[1]; protein CMTM4, 24 hours
  Fold change: 1.678
[1]; protein CYP51A1, 24 hours
  Fold change: 1.636
[1]; protein DHTKD1, 24 hours
  Fold change: 1.384
[1]; protein DLD, 24 hours
  Fold change: 0.684
[1]; protein DOLPP1, 24 hours
  Fold change: 0.731
[1]; protein DOPEY2, 24 hours
  Fold change: 0.797
[1]; protein DTNBP1, 24 hours
  Fold change: 0.794
[1]; protein FAH, 24 hours
  Fold change: 0.785
[1]; protein FAU, 24 hours
  Fold change: 0.742
[1]; protein Hist1h1d, 24 hours
  Fold change: 0.703
[1]; protein KIAA0355, 24 hours
  Fold change: 1.48
[1]; protein MED27, 24 hours
  Fold change: 0.79
[1]; protein MROH1, 24 hours
  Fold change: 1.386
[1]; protein NAA35, 24 hours
  Fold change: 1.377
[1]; protein NDRG1, 24 hours
  Fold change: 1.55
[1]; protein NOL8, 24 hours
  Fold change: 0.771
[1]; protein NR2F6, 24 hours
  Fold change: 1.842
[1]; protein NRGN, 24 hours
  Fold change: 0.795
[1]; protein OGFOD2, 24 hours
  Fold change: 0.754
[1]; protein OSTC, 24 hours
  Fold change: 1.418
[1]; protein PDCL, 24 hours
  Fold change: 0.752
[1]; protein PLP2, 24 hours
  Fold change: 0.763
[1]; protein PRSS23, 24 hours
  Fold change: 1.844
[1]; protein RCCD1, 24 hours
  Fold change: 1.443
[1]; protein RDH13, 24 hours
  Fold change: 1.429
[1]; protein RRM2B, 24 hours
  Fold change: 1.395
[1]; protein RUSC1, 24 hours
  Fold change: 0.771
[1]; protein SCAMP2, 24 hours
  Fold change: 0.729
[1]; protein SLC25A15, 24 hours
  Fold change: 0.796
[1]; protein TADA3, 24 hours
  Fold change: 1.45
[1]; protein TCEAL1, 24 hours
  Fold change: 1.382
[1]; protein TMEM55B, 24 hours
  Fold change: 1.664
[1]; protein UQCC3, 24 hours
  Fold change: 1.635
[1]; protein ZBTB21, 24 hours
  Fold change: 0.709
[1]; protein gk, 24 hours
  Fold change: 3.009
[1]; protein krt17, 24 hours
  Fold change: 1.386
[1]; protein pop7, 24 hours
  Fold change: 0.736
[1]; protein scaf8, 24 hours
  Fold change: 1.508
[2]
  TCA cycle (proteomic results): suppressed
  hypoxia pathways, bile acid metabolism, cholesterol homoeostasis and glycolysis (proteomic results): upregulated
[2]; [3]
  ES: 0.317
  NES: 1.025
[2]; [4]
  ES: −0.287
  NES: −1.082
[2]; [5]
  ES: 0.259
  NES: 0.760
[2]; [6]
  ES: 0.335
  NES: 1.042
[2]; [7]
  ES: 0.523
  NES: 1.465
[2]; [8]
  ES: 0.493
  NES: 1.407
[2]; [9]
  ES: 0.636
  NES: 1.813
[2]; [10]
  ES: 0.401
  NES: 1.235
[2]; [11]
  ES: 0.381
  NES: 1.239
[2]; [12]
  ES: −0.349
  NES: −1.559
[2]; [13]
  ES: 0.449
  NES: 1.312
[2]; HALLMARK_ESTROGEN_RESPONSE_EARLY, FDR q-val 0.813
  NES: 0.929
[2]; [14]
  ES: −0.313
  NES: −1.421
[2]; [15]
  ES: 0.399
  NES: 1.281
[2]; [16]
  ES: 0.376
  NES: 1.150
[2]; HALLMARK_HYPOXIA, FDR q-val 0.003
  ES: 0.595
